Data published in publication PMC12679585, “Design, synthesis, and characterization of novel 5-ethylsulfonyl-indazole-3-carboxamides as dual VEGFR-2 and EGFR inhibitors: apoptotic antiproliferative and immunomodulatory evaluations” (RSC Advances, 2025).

Key:
HCT-116 = assay: Antiproliferative assay (MTT); assay type: cell-based; conditions: Homo sapiens, HCT-116 colorectal, mean of three experiments ± SD
Text: (§1) The MTT assay[53,54] was employed to evaluate the antiproliferative efficacy of new compounds 8a–l against two human cancer cell lines: MCF-7 (breast) and HCT-116 (colorectal carcinoma). Erlotinib was employed as the benchmark. Check Appendix A for additional experimental information.
(§2) The MTT assay[53,54] was used to evaluate the antiproliferative properties of novel compounds 8a–l against two human cancer cell lines: MCF-7 (breast cancer) and HCT-116 (colorectal carcinoma). Erlotinib was utilized as the reference. […] The provided values represent the means of three experiments ± standard deviation (SD). […]
(§3) of Ham's F-12 medium/ Dulbecco's modified Eagle's medium (DMEM) (1:1) supplemented with 10% foetal calf serum (GIBCO, UK), 2 mM glutamine, insulin (10 μg/mL), hydrocortisone (500 ng/mL) and epidermal growth factor (20 ng/mL). Trypsin ethylenediamine tetra acetic acid (EDTA) was used to passage the cells after every 2-3 days. 96-well flat-bottomed cell culture plates were used to seed the cells at a density of 10^4 cells mL-1. The medium was aspirated from all the wells of culture plates after 24 h followed by the addition of synthesized compounds (in 200 μL medium to yield a final concentration of 0.1% (v/v) dimethyl sulfoxide) into individual wells of the plates.
(§4) Four wells were designated to a single compound. The plates were allowed to incubate at 37°C for 96 h. Afterwards, the medium was aspirated and 3-[4,5-dimethylthiazol-2-yl]-2,5-diphenyltetrazolium bromide (MTT) (0.4 mg/mL) in medium was added to each well and subsequently incubated for 3 h. The medium was aspirated and 150 μL dimethyl sulfoxide (DMSO) was added to each well. The plates were vortexed followed by the measurement of absorbance at 540 nm on a microplate reader. […]
(§5) All cell lines […]
(§6) were obtained from ATCC (American Type Cell Culture). […]
(§7) μM), benzamidine HCl (16 μg/mL), NaCl (10 mM),leupeptin (10 μg/mL) and pepstatin (10 μg/mL) at 0°C for 20 min at pH 7.4, followed by centrifugation for 20 min. To eliminate the nonspecifically bound material, a Ni-NTA super flow packed column was (1 picture or pasted object on this page, not shown here)

MCF-7 = assay: Antiproliferative assay (MTT); assay type: cell-based; conditions: Homo sapiens, MCF7, MCF-7 breast, mean of three experiments ± SD
Text: as §1, §2, §3, §4, §5, §6, §7

Caspase-9 = Caspase-9 activation assay in HCT-116 cells; conditions: for Caspase-9 fold change: relative to control
[1] = Cell viability assay (MTT) on normal mammary epithelial cells; assay type: cell-based; conditions: human, MCF-10A normal mammary gland epithelial cells, four days
Procedure: This test assesses the safety of new compounds 8a–l on normal cell lines. The efficacy of 8a–l was tested on the normal human mammary gland epithelial cell line MCF-10A. MCF-10A cells were incubated with 50 µM of each tested compound for four days. Cell viability was assessed using the MTT assay.[11,48] Appendix A has extra experimental details.
This assay evaluates the impact of novel compounds 8a–l on normal cell lines to determine their safety, an essential consideration in drug discovery. The efficacy of the examined compounds was evaluated utilizing the normal human mammary gland epithelial cell line MCF-10A. […]
4.2. Biological evaluation
4.2.1 Cell Viability assay (MTT assay)
as §3, with “MTT assay was performed to investigate the effect of the synthesized compounds on mammary epithelial cells (MCF-10A). The cells were propagated in medium consisting of Ham's” for “of Ham's”
as §4

HCT-116 and MCF-7 = assay: Antiproliferative assay, average over the two cell lines; assay type: cell-based; conditions: Homo sapiens; average of HCT-116 and MCF-7; read-out: Average IC50 (GI50)
Text: as §1
The MTT assay[53,54] was used to evaluate the antiproliferative properties of novel compounds 8a–l against two human cancer cell lines: MCF-7 (breast cancer) and HCT-116 (colorectal carcinoma). Erlotinib was utilized as the reference. […] The provided values represent the means of three experiments ± standard deviation (SD).

VEGFR-2 = VEGFR-2 (Homo sapiens, UniProt P35968); assay: VEGFR-2 inhibitory assay
VEGFR-2, sequence (P35968 20-1356): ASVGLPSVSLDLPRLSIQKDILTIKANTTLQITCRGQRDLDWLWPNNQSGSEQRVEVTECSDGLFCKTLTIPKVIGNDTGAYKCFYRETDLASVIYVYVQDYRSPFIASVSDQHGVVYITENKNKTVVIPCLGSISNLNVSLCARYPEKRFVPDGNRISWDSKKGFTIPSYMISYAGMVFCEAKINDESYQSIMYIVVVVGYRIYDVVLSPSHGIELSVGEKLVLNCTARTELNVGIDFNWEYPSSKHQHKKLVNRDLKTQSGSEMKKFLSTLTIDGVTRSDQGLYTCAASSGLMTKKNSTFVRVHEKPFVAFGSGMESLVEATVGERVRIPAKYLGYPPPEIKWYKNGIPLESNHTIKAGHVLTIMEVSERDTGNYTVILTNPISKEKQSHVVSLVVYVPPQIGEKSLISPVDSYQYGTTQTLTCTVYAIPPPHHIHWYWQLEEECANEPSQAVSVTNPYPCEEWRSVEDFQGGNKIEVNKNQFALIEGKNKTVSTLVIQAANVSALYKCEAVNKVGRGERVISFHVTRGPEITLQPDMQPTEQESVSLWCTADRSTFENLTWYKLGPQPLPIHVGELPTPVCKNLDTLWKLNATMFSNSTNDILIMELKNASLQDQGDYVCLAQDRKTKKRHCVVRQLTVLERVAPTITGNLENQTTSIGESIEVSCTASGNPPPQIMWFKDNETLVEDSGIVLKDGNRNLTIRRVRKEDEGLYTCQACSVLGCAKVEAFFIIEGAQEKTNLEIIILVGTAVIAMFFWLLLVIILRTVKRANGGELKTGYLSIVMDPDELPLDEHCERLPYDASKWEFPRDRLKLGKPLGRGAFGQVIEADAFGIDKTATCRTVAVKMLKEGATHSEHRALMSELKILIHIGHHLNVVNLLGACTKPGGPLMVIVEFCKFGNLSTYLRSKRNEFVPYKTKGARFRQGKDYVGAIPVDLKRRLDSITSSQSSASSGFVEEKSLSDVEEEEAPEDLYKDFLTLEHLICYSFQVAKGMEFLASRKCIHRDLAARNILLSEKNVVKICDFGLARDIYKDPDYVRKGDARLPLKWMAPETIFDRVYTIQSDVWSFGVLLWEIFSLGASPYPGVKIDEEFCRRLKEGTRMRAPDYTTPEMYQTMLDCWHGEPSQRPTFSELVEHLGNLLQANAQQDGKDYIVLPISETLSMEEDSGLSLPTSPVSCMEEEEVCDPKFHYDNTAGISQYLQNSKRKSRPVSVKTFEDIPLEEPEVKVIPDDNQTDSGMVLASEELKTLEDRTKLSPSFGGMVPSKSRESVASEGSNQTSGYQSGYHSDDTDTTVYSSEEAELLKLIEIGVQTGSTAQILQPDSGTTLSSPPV
Procedure: Prepare all the solutions using autoclaved, deionized water and analytical grade
reagents. Prepare and store all the reagents at room temperature (unless indicated
EDTA, adjust the pH to 8.0 using NaOH solution, add 5 mL ultra-pure water; 1×Kinase
solution (1 M), 1 mL DTT, 50 μL tween-20, 450 mL ultrapure water, adjust pH to 7.5
and constant volume to 500 mL using ultrapure water; 4×Stop solution (40 mM): Mix
0.8 mL of the foregoing EDTA solution, 1 mL 10×Detection Buffer and 8.2 mL ultra-
pure water; 1×Detection Buffer: Mix 1 mL 10×Detection Buffer with 9 mL water;
before use). The assays used an ULight-labeled peptide substrate and a Europium-
W1024-labeled antiphosphotyrosine antibody. The VEGFR-2 was purchased from
Carna Biosciences, Inc. (New York, USA). The 384-well plates were obtained from
PerkinElmer. Compounds were dissolved in DMSO and diluted to 11 concentrations at
2×VEGFR-2 kinase solution (0.5 nM) was added to 384-well plates homogeneous
mixing and pre-reaction at room temperature for 30 min. […]
well plate, The final concentration of DMSO in the mixing system was 4%. […] The plate was read using an Envision plate reader. The inhibition rate (%) = (positive well reading-compound well reading)/(positive well reading-negative well reading)×100. The corresponding IC50 values were calculated using GraphPad Prism 5.0.

## CCS(=O)(=O)c1ccc2[nH]nc(C(=O)NNC(=O)NC3CCCCCC3)c2c1 [Compound 8h, 2-(5-(Ethylsulfonyl)-1H-indazole-3-carbonyl)-N-(cycloheptyl)hydrazine-1-carboxamide]
HCT-116
  IC50: 23 ± 1 nM
MCF-7
  IC50: 25 ± 1 nM
Caspase-9
  Caspase-9 Conc.: 23 ± 1 ng/mL
  Caspase-9 fold change: 23 fold
[1]
  viability at 4 days, 50 µM: 90%
HCT-116 and MCF-7
  IC50: 24 nM
VEGFR-2
  IC50: 12 ± 1 nM

## CCS(=O)(=O)c1ccc2[nH]nc(C(=O)NNC(=O)NC34CC5CC(CC(C5)C3)C4)c2c1 [Compound 8g, 2-(5-(Ethylsulfonyl)-1H-indazole-3-carbonyl)-N-(adamantan-1-yl)hydrazine-1-carboxamide]
HCT-116
  IC50: 24 ± 1 nM
MCF-7
  IC50: 28 ± 1 nM
Caspase-9
  Caspase-9 Conc.: 21 ± 3 ng/mL
  Caspase-9 fold change: 21 fold
[1]
  viability at 4 days, 50 µM: 91%
HCT-116 and MCF-7
  IC50: 26 nM
VEGFR-2
  IC50: 16 ± 1 nM
